The source of these data is ChEMBL document CHEMBL3244086, “A new class of antimalarial drugs: derivatives of benzothiopyrans” (J Med Chem, 1978).

Active and inactive are the calls of the source. The calls are words filed in the database; no cut-off is given here.

For series [1], the system named is Plasmodium berghei. The series is described as follows: Antimalarial activity against Plasmodium berghei infected in mouse assessed as host survival time at 640 mg/kg, sc treated after 3 days of infection (reference value: 6.2 +/- 0.5 days). Format: functional.
Series [2] has as its system Gallus gallus. The series can be described thus: Toxicity in chick at 120 mg/kg, sc. Particulars: chicken, in vivo. On the set-up: dose 120 mg/kg, route subcutaneous. Format: organism-based.
Series [3] has as its system Plasmodium berghei. The series can be described thus: Antimalarial activity against Plasmodium berghei infected in mouse assessed as host survival time at 320 mg/kg, sc treated after 3 days of infection (reference value: 6.2 +/- 0.5 days). Format: functional.
In series [4] the test system is Gallus gallus. The series can be described thus: Toxicity in chick at 160 mg/kg, sc. Format: organism-based. Also on record: dose 160 mg/kg, route subcutaneous. The following applies: chicken, in vivo.
The next series concerns Mus musculus. The series is described as follows: Toxicity in mouse at 640 mg/kg, sc. Particulars: in vivo. The class given is organism-based. On the set-up: dose 640 mg/kg, route subcutaneous.
Series [5] relates to Plasmodium gallinaceum. The series is described as follows: Antimalarial activity against Plasmodium gallinaceum B infected in chick assessed as host survival time at 80 mg/kg, sc treated immediately after infection. Format: functional, organism-based. Also on record: dose 80 mg/kg.
Series [6] concerns Plasmodium gallinaceum. The series can be described thus: Antimalarial activity against Plasmodium gallinaceum B infected in chick assessed as host survival time at 320 mg/kg, sc treated immediately after infection. The class given is functional.
For series [7], the system named is Plasmodium berghei. The series can be described thus: Antimalarial activity against Plasmodium berghei infected in mouse assessed as host cured at 320 to 640 mg/kg, sc treated after 3 days of infection. Format: functional, organism-based.
Series [8] concerns Gallus gallus. The series can be described thus: Toxicity in chick at 320 mg/kg, sc. The class given is organism-based. On the set-up: dose 320 mg/kg, route subcutaneous. Particulars: chicken, in vivo.
The subject of series [9] is Plasmodium gallinaceum. The series can be described thus: Antimalarial activity against Plasmodium gallinaceum B infected in chick assessed as host survival time at 160 mg/kg, sc treated immediately after infection. Format: functional.
In series [10] the test system is Plasmodium gallinaceum. The series is described as follows: Antimalarial activity against Plasmodium gallinaceum B infected in chick assessed as host survival time at 120 mg/kg, sc treated immediately after infection. The class given is functional, organism-based. On the set-up: dose 120 mg/kg.
Series [11] concerns Plasmodium berghei. The series is described as follows: Antimalarial activity against Plasmodium berghei infected in mouse assessed as host survival time at 160 mg/kg, sc treated after 3 days of infection (reference value: 6.2 +/- 0.5 days). The class given is functional. The following applies: route subcutaneous.

Consider `CCN(CC)CCCC(C)/N=c1\cc(-c2ccc(F)cc2)sc2ccc(F)cc12.Cl` (centres undefined), for which the MST entry in the series on Plasmodium berghei [1] is “inactive”. Moreover, in the series with Gallus gallus [2], the Activity entry is recorded as “Toxic”.

`CN(C)CC/N=c1\cc(-c2ccccc2)sc2ccc(Cl)cc12`: in the series on Plasmodium berghei [1], the MST result is “inactive”.

On to `CCN(CC)CCCC(C)/N=c1\cc(-c2ccc(Cl)cc2)sc2ccccc12.Cl` (centres undefined), for which the MST result in the series with Plasmodium berghei [3] and in the series with Plasmodium gallinaceum [5] was “inactive” throughout. Further, the Activity result with Gallus gallus [4] and with Mus musculus was “Toxic” in each case.

As to `CN1CCN(CCC/N=c2\cc(-c3ccc(Cl)cc3)sc3ccccc23)CC1`, the MST with Plasmodium berghei [3] (route subcutaneous) was 6.9 days.

With `CN1CCCC1CC/N=c1\cc(-c2ccccc2)sc2ccc(Cl)cc12` (centres undefined), in the series on Plasmodium berghei [3] (route subcutaneous), the MST was found to be 7 days.

As for `CN1CCCC1CC/N=c1\cc(-c2ccc(Cl)c(Cl)c2)sc2ccc(F)cc12` (centres undefined), the MST entry in the series with Plasmodium gallinaceum [6] and in the series on Plasmodium berghei [1] was “inactive” throughout.

In the case of `Clc1ccc2sc(-c3ccccc3)c/c(=N\CCCCC3CCCCC3)c2c1`, the MST result with Plasmodium gallinaceum [6] and with Plasmodium berghei [1] was “inactive” each time.

Take `CN(C)CCC/N=c1\cc(-c2ccc(Cl)cc2)sc2ccccc12.Cl`: the outcome in the series with Plasmodium berghei [7] was Active. Moreover, the Activity result in the series on Mus musculus is “Toxic”.

With `Cl.OCCN1CCN(CCCC/N=c2\cc(-c3ccc(Cl)cc3)sc3ccc(Cl)cc23)CC1`, the figures for the MST in the series on Plasmodium berghei [3] (route subcutaneous) and in the series on Plasmodium berghei [1] (route subcutaneous) were 7.4 days and 7.9 days, respectively. Moreover, the Activity entry with Mus musculus and with Gallus gallus [8] was “Toxic” in each case.

Regarding `CCN(CC)CCCC(C)/N=c1\cc(C23CC4CC(CC(C4)C2)C3)sc2ccc(Cl)cc12.Cl` (centres undefined), the MST result in the series with Plasmodium gallinaceum [9] and in the series on Plasmodium berghei [1] was “inactive” in each case. Besides, in the series on Gallus gallus [4], the Activity result is on record as “Toxic”.

Take `CCN(CC)CCCC(C)/N=c1\cc(-c2ccc(Cl)c(Cl)c2)sc2ccc(F)cc12` (centres undefined): the MST result with Plasmodium berghei [1] and in the series on Plasmodium gallinaceum [10] was “inactive” each time.

On to `Clc1ccc2sc(-c3ccccc3)c/c(=N\c3cccnc3)c2c1`, for which the MST entry with Plasmodium gallinaceum [6] and in the series with Plasmodium berghei [3] was “inactive” in each case.

As for `Clc1ccc(-c2c/c(=N\CCCN3CCOCC3)c3cc(Br)ccc3s2)cc1Cl`, in the series on Plasmodium gallinaceum [6], the MST entry was “inactive”. In the series with Plasmodium berghei [1] (route subcutaneous), the MST came out at 10.5 days.

On to `Clc1ccc(-c2c/c(=N\CCCCC3CCCCC3)c3cc(Cl)ccc3s2)cc1`, for which the MST result with Plasmodium gallinaceum [6] and with Plasmodium berghei [1] was “inactive” each time.

In the case of `CCN(CC)CCCC(C)/N=c1\cc(-c2ccc(Cl)c(Cl)c2)sc2ccc(OC)cc12` (centres undefined), the MST entry in the series with Plasmodium gallinaceum [10] was “inactive”.

As for `CCN(CC)CCCC(C)/N=c1\cc(-c2ccccc2)sc2ccc(Br)cc12.Cl` (centres undefined), the MST entry in the series with Plasmodium gallinaceum [9] is “inactive”. For the same compound, the outcome in the series with Plasmodium berghei [7] was Active. Moreover, the MST in the series on Plasmodium berghei [11] was found to be 9.5 days.

In the case of `CCN(CC)CCC/N=c1\cc(-c2ccccc2)sc2ccc(Cl)cc12.NS(=O)(=O)O`, the MST result with Plasmodium gallinaceum [6] is “inactive”. Moreover, the MST was determined as 9.1 days with Plasmodium berghei [3] (route subcutaneous) and 10.3 days in the series with Plasmodium berghei [1] (route subcutaneous).

With `Cl.Clc1ccc2sc(-c3ccccc3)c/c(=N\CCCN3CCOCC3)c2c1`, in the series with Plasmodium berghei [1] (route subcutaneous), the MST stood at 6.8 days.

As for `NCCC/N=c1\cc(-c2ccccc2)sc2ccc(Cl)cc12`, in the series with Plasmodium berghei [1], the MST result was “inactive”.

As to `Clc1ccc2sc(-c3ccccc3)c/c(=N\C34CC5CC(CC(C5)C3)C4)c2c1`, the MST result in the series on Plasmodium gallinaceum [6] and in the series on Plasmodium berghei [1] was “inactive” in each case.

For `CCN(CC)CCCC(C)/N=c1\cc(-c2ccc(F)cc2)sc2ccc(Br)cc12.Cl` (centres undefined), the MST result in the series on Plasmodium gallinaceum [9] was “inactive”. Moreover, the results for the MST in the series with Plasmodium berghei [3] (route subcutaneous) and in the series with Plasmodium berghei [1] (route subcutaneous) were 6.9 days and 10.1 days, respectively. For the same compound, in the series on Gallus gallus [8], the Activity entry is recorded as “Toxic”.

As to `Clc1ccc2sc(-c3ccccc3)c/c(=N\CCN3CCCC3)c2c1`, the MST result in the series on Plasmodium berghei [1] is “inactive”.

`Cl.Clc1ccc(-c2c/c(=N\CCCN3CCCCC3)c3cc(Cl)ccc3s2)cc1`: the MST with Plasmodium gallinaceum [6] (route subcutaneous) was found to be 5.2 days. The MST entry in the series on Plasmodium berghei [1] was “inactive”.

In the case of `N=C(N)N/N=c1\cc(-c2ccccc2)sc2ccc(Cl)cc12`, the MST with Plasmodium berghei [1] (route subcutaneous) was 6.2 days.

As to `CCN(CC)CCCC(C)/N=c1\cc(-c2ccc(Cl)c(Cl)c2)sc2ccc(Br)cc12` (centres undefined), the MST result in the series on Plasmodium gallinaceum [9] and in the series with Plasmodium berghei [3] was “inactive” each time.

Regarding `CN1CCN(CCC/N=c2\cc(-c3ccc(Cl)cc3)sc3ccc(Cl)cc23)CC1`, the results for the MST with Plasmodium gallinaceum [6] (route subcutaneous), with Plasmodium berghei [3] (route subcutaneous) and in the series on Plasmodium berghei [11] were 3.4 days, 11.2 days and 6.2 days, respectively. Also, the result in the series on Plasmodium berghei [7] was Active.

As to `Clc1ccc(-c2c/c(=N\Cc3ccccn3)c3cc(Cl)ccc3s2)cc1`, the MST result with Plasmodium gallinaceum [6] and with Plasmodium berghei [3] was “inactive” in each case.

For the compound `CN(C)CCC/N=c1\cc(-c2ccccc2)sc2ccc(Br)cc12.Cl`, in the series with Plasmodium berghei [3] (route subcutaneous), the MST worked out at 12.6 days.

Regarding `CN1CCN(CCC/N=c2\cc(-c3ccccc3)sc3ccc(Cl)cc23)CC1`, in the series on Plasmodium gallinaceum [6], the MST entry is “inactive”. The MST in the series with Plasmodium berghei [3] (route subcutaneous) is 7.3 days.

For `CCN(CC)CCCC(C)/N=c1\cc(-c2ccc(Cl)cc2)sc2ccc(Br)cc12.Cl` (centres undefined), the MST in the series with Plasmodium gallinaceum [9] (route subcutaneous) worked out at 5 days. The MST entry in the series on Plasmodium berghei [3] is “inactive”.

For `CCN(CC)CCCC(C)/N=c1\cc(-c2ccccc2)sc2ccc(Cl)cc12.Cl` (centres undefined), the MST with Plasmodium berghei [3] (route subcutaneous) stood at 10.6 days; in the series with Plasmodium berghei [11], 8 days. Besides, in the series with Plasmodium berghei [7], the outcome was Active. Moreover, in the series on Gallus gallus [8], the Activity entry was “Toxic”.

`CN1CCN(CCC/N=c2\cc(-c3ccc(Cl)cc3)sc3ccc(Br)cc23)CC1`: the MST entry with Plasmodium gallinaceum [9] and with Plasmodium berghei [3] was “inactive” in each case.

In the case of `CN(C)CCC/N=c1\cc(-c2ccccc2)sc2ccc(Cl)cc12.Cl.O`, in the series on Plasmodium berghei [1] (route subcutaneous), the MST came to 13.6 days.

On to `Clc1ccc2sc(-c3ccccc3)c/c(=N\C3CN4CCC3CC4)c2c1` (centres undefined), for which the MST result in the series on Plasmodium gallinaceum [6] and with Plasmodium berghei [1] was “inactive” throughout.

For `CCN(CC)CCCC(C)/N=c1\cc(-c2ccc(Cl)cc2)sc2ccc(Cl)cc12.Cl` (centres undefined), the MST with Plasmodium gallinaceum [6] (route subcutaneous) was found to be 4.7 days. Besides, in the series on Plasmodium berghei [1], the MST result is “inactive”.

Regarding `O=C(NCCC/N=c1\cc(-c2ccccc2)sc2ccc(Cl)cc12)OCc1ccccc1`, the MST entry in the series with Plasmodium berghei [1] is “inactive”.

Turning to `CN(C)CCC/N=c1\cc(-c2ccc(Cl)cc2)sc2ccc(Cl)cc12`, the MST in the series with Plasmodium gallinaceum [6] (route subcutaneous) turned out to be 4.4 days; in the series with Plasmodium gallinaceum [9] (route subcutaneous) it was 3.4 days; in the series on Plasmodium berghei [3] (route subcutaneous) it was 9.8 days; in the series on Plasmodium berghei [11] it was 7 days. Further, the result in the series with Plasmodium berghei [7] was Active.

With `OCCN1CCN(CC/N=c2\cc(-c3ccc(Cl)cc3)sc3ccc(Cl)cc23)CC1`, the MST result with Plasmodium gallinaceum [6] and in the series on Plasmodium berghei [1] was “inactive” in each case.

With `OCCN1CCN(CCCC/N=c2\cc(C34CC5CC(CC(C5)C3)C4)sc3ccc(Br)cc23)CC1`, the MST result in the series on Plasmodium berghei [3] and in the series with Plasmodium gallinaceum [10] was “inactive” throughout. Besides, the Activity entry in the series on Gallus gallus [2] is reported as “Toxic”.
